Experimental data from the supplement of paper PMC11451515.

Experiments:
Settings in all cases: 48 h
NOMO1 [1] = test: cell viability relative to DMSO control; higher = less cytotoxic
Outline: (§1)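 Viability was expressed as a per-plate percentage of DMSO wells, with cell-free wells as background. Leukemia cells (NOMO1 or SEM at 500 cells/well, P12-Ichikawa at 1000 cells/well) were adapted for at least four passages in each medium and seeded in 1536-well plates (5 μl). Library compounds in DMSO were pin-dosed over an 11-point threefold series from 47 μM to 0.79 nM, and CellTiter-Glo One luminescence was read after 48 h at 37°C.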

P12-Ichikawa [2] = test: as above
Outline: as §1

SEM cells = test: as above
Outline: as §1

NOMO1 [3] = test: AUC of viability dose-response curve (% viability x log10 dose units); higher = less sensitive
Outline: (§2)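 Viability of medium-adapted leukemia cells was measured by CellTiter-Glo One luminescence after 48 h at 37°C with library compounds in DMSO. Doses were 11 threefold steps from 47 μM to 0.79 nM, in 1536-well plates at 500 or 1000 cells/well. Signals were normalised per plate to DMSO and cell-free wells and fitted with a four-parameter log-logistic model on log10 dose. Area under the curve was integrated by trapezoidal rule, with curves exceeding full viability scaled and failed quality-control curves removed.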

P12-Ichikawa [4] = test: as above
Outline: as §2

CCN(CC)CCNC(=O)c1c(C)[nH]c(/C=C2\C(=O)Nc3ccc(F)cc32)c1C
cell viability [%]
Settings | NOMO1 [1] | P12-Ichikawa [2] | SEM cells
HPLM + 10% dialyzed FBS, 0.000781 µM | 79.5 | 106 | 48
HPLM + 10% dialyzed FBS, 0.00234 µM | 103 | 102 | 47.3
HPLM + 10% dialyzed FBS, 0.00702 µM | 109 | 106 | 43.4
HPLM + 10% dialyzed FBS, 0.0211 µM | 124 | 103 | 53
HPLM + 10% dialyzed FBS, 0.0632 µM | 87.1 | 104 | 41.8
HPLM + 10% dialyzed FBS, 0.19 µM | 23.4 | 36.8 | 13
HPLM + 10% dialyzed FBS, 0.569 µM | 30.7 | 21.5 | 9.03
HPLM + 10% dialyzed FBS, 1.71 µM | 23 | 6.34 | 6.26
HPLM + 10% dialyzed FBS, 5.12 µM | 29.1 | 9.77 | 5.73
HPLM + 10% dialyzed FBS, 15.4 µM | 6.81 | 3.45 | 4.36
HPLM + 10% dialyzed FBS, 46.1 µM | 4.98 | 2.39 | 4.22
RPMI 5 mM glucose + 10% FBS, 0.000781 µM | 106 | 106 | 72.7
RPMI 5 mM glucose + 10% FBS, 0.00234 µM | 103 | 105 | 66.3
RPMI 5 mM glucose + 10% FBS, 0.00702 µM | 109 | 114 | 58.1
RPMI 5 mM glucose + 10% FBS, 0.0211 µM | 113 | 103 | 57
RPMI 5 mM glucose + 10% FBS, 0.0632 µM | 115 | 118 | 34.1
RPMI 5 mM glucose + 10% FBS, 0.19 µM | 45.5 | 58.8 | 10.6
RPMI 5 mM glucose + 10% FBS, 0.569 µM | 16.1 | 34.1 | 9.65
RPMI 5 mM glucose + 10% FBS, 1.71 µM | 21.9 | 12.6 | 6.37
RPMI 5 mM glucose + 10% FBS, 5.12 µM | 24.7 | 14.6 | 5.9
RPMI 5 mM glucose + 10% FBS, 15.4 µM | 11.5 | 4.54 | 3.85
RPMI 5 mM glucose + 10% FBS, 46.1 µM | 3.98 | 2.44 | 4.31
RPMI 5 mM glucose + 10% dialyzed FBS, 0.000781 µM | 97.7 | 114 | 52.8
RPMI 5 mM glucose + 10% dialyzed FBS, 0.00234 µM | 110 | 113 | 42.7
RPMI 5 mM glucose + 10% dialyzed FBS, 0.00702 µM | 100 | 109 | 42.2
RPMI 5 mM glucose + 10% dialyzed FBS, 0.0211 µM | 117 | 112 | 44.5
RPMI 5 mM glucose + 10% dialyzed FBS, 0.0632 µM | 117 | 113 | 27.6
RPMI 5 mM glucose + 10% dialyzed FBS, 0.19 µM | 43.1 | 51.3 | 9.68
RPMI 5 mM glucose + 10% dialyzed FBS, 0.569 µM | 22.3 | 31 | 9.05
RPMI 5 mM glucose + 10% dialyzed FBS, 1.71 µM | 25.9 | 12.2 | 6.13
RPMI 5 mM glucose + 10% dialyzed FBS, 5.12 µM | 31.8 | 14.3 | 5.9
RPMI 5 mM glucose + 10% dialyzed FBS, 15.4 µM | 11.3 | 4.09 | 3.85
RPMI 5 mM glucose + 10% dialyzed FBS, 46.1 µM | 3.82 | 2.75 | 3.99

AUC of viability dose-response curve
Settings | HPLM + 10% dialyzed FBS | RPMI 5 mM glucose + 10% FBS | RPMI 5 mM glucose + 10% dialyzed FBS
NOMO1 [3] | 257 | 265 | 271
P12-Ichikawa [4] | 248 | 266 | 257
